Measured values published in patent US20250221410A1, “SUBSTITUTED 2-C-AZINES AND SALTS THEREOF, AND USE THEREOF AS HERBICIDAL ACTIVE SUBSTANCES” (BAYER AKTIENGESELLSCHAFT, priority 2022, published 2025).

Key:
SETVI: Setaria viridis [1] = experiment: Pre-emergence herbicide efficacy at 80 g/ha, SETVI; format: in vivo; settings: scored visually after about 3 weeks
Procedure, shortened: (§1)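 Visual scoring against untreated controls after about 3 weeks gave percent activity, where 0% means growth like controls and 100% means plants died. Test compounds, as wettable powders or emulsion concentrates with 0.5% additive, were applied to the covering soil of freshly sown pots at a water rate equivalent to 600 l/ha.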

STEME: Stellaria media [2] = experiment: Pre-emergence herbicide efficacy at 1280 g/ha, STEME; format: in vivo; settings: visual scoring vs untreated controls
Procedure, shortened: (§2)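 Pre-em, sandy loam pots, seeds covered w/ soil. WP/EC formulation, aq. spray onto soil surface, 0.5% additive, 600 L/ha. Greenhouse ~3 wk; visual % vs untreated (0 = control, 100 = dead).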

SETVI: Setaria viridis [3] = experiment: Pre-emergence herbicide efficacy at 1280 g/ha, SETVI; format: in vivo; settings: visual scoring vs untreated controls
Procedure, shortened: as §2

[4] = tested on: AMARE: Amaranthus retroflexus; experiment: Post-emergence herbicidal efficacy at 80 g/ha, AMARE; format: in vivo; settings: visual rating about 3 weeks after treatment vs untreated controls
Procedure, shortened: (§3)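 One-leaf-stage weeds in sandy loam were treated with aqueous suspensions or emulsions (0.5% additive, 600 l/ha) and held in the greenhouse for about 3 weeks before visual rating on a 0–100% scale versus untreated controls.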

[5] = tested on: ECHCG: Echinochloa crus-galli; experiment: Pre-emergence herbicide efficacy at 80 g/ha, ECHCG; format: in vivo; settings: scored visually after about 3 weeks
From the text: (§4) Seeds of monocotyledonous and dicotyledonous weed plants and crop plants were placed in plastic or organic planting pots and covered with soil. The compounds of the invention, formulated in the form of wettable powders (WP) or as emulsion concentrates (EC), were then applied to the surface of the covering soil as aqueous suspension or emulsion with addition of 0.5% additive at a water application rate equivalent to 600 l/ha. After the treatment, the pots were placed in a greenhouse and kept under good growth conditions for the test plants. After about 3 weeks, the efficacy of the preparations was scored visually in comparison with untreated controls as percentages. For example, 100% activity=the plants have died, 0% activity=like control plants. Tables D1 to D12 below show the effects of selected compounds of the general formula (I) according to Table 1 on various harmful plants and an application rate corresponding to 80 g/ha, which were obtained by the experimental procedure mentioned above.

POLCO = experiment: Post-emergence herbicidal efficacy at 80 g/ha, POLCO; format: in vivo, Polygonum convolvulus; settings: visual rating about 3 weeks after treatment vs untreated controls
Experimental: (§5) Seeds of monocotyledonous and dicotyledonous weeds and crop plants were placed in sandy loam in plastic or organic planting pots, covered with soil and cultivated in a greenhouse under controlled growth conditions. 2 to 3 weeks after sowing, the test plants were treated at the one-leaf stage. The compounds of the invention, formulated in the form of wettable powders (WP) or as emulsion concentrates (EC), were then sprayed onto the green parts of the plants as aqueous suspension or emulsion with addition of 0.5% additive at a water application rate of 600 l/ha (converted). After the test plants had been kept in the greenhouse under optimum growth conditions for about 3 weeks, the activity of the preparations was rated visually in comparison to untreated controls. For example, 100% activity=the plants have died, 0% activity=like control plants. Tables B1 to B10 below show the effects of selected compounds of the general formula (I) according to Table 1 on various harmful plants and an application rate corresponding to 80 g/ha, which were obtained by the experimental procedure mentioned above.

KCHSC: Kochia scoparia [6] = experiment: Pre-emergence herbicide efficacy at 80 g/ha, KCHSC; format: in vivo; settings: scored visually after about 3 weeks
From the text: as §4

[7] = tested on: ABUTH: Abutilon theophrasti; experiment: Post-emergence herbicidal efficacy at 1280 g/ha, ABUTH; format: in vivo; settings: rated visually after about 3 weeks vs untreated controls, 100% = plants have died, 0% = like control plants
Procedure, shortened: (§6)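 Read-out is visual percent activity relative to untreated controls (100% = plants died, 0% = no effect), scored about 3 weeks after treatment. Application was post-emergence at the one-leaf stage in the greenhouse, as WP or EC in water with 0.5% additive at 600 L/ha.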

[8] = tested on: ABUTH: Abutilon theophrasti; experiment: Pre-emergence herbicide efficacy at 1280 g/ha, ABUTH; format: in vivo; settings: visual scoring after about 3 weeks vs untreated controls
Procedure, shortened: as §2

POAAN: Poa annua = experiment: Pre-emergence herbicide efficacy at 1280 g/ha, POAAN; format: in vivo; settings: visual scoring after about 3 weeks vs untreated controls
Procedure, shortened: as §2

SETVI: Setaria viridis [9] = experiment: Post-emergence herbicidal efficacy at 1280 g/ha, SETVI; format: in vivo; settings: visual rating about 3 weeks after treatment vs untreated controls
Procedure, shortened: as §6

[10] = tested on: DIGSA: Digitaria sanguinalis; experiment: Post-emergence herbicidal efficacy at 1280 g/ha, DIGSA; format: in vivo; settings: rated visually after about 3 weeks vs untreated controls, 100% = plants have died, 0% = like control plants
Procedure, shortened: as §6

STEME: Stellaria media [11] = experiment: Post-emergence herbicidal efficacy at 1280 g/ha, STEME; format: in vivo; settings: visual rating about 3 weeks after treatment vs untreated controls
Procedure, shortened: as §6

KCHSC: Kochia scoparia [12] = experiment: Post-emergence herbicidal efficacy at 1280 g/ha, KCHSC; format: in vivo; settings: visual rating about 3 weeks after treatment vs untreated controls
Procedure, shortened: as §6

[13] = tested on: AMARE: Amaranthus retroflexus; experiment: Pre-emergence herbicide efficacy at 80 g/ha, AMARE; format: in vivo; settings: scored visually after about 3 weeks
Procedure, shortened: as §1

VIOTR: Viola tricolor = experiment: Post-emergence herbicidal efficacy at 80 g/ha, VIOTR; format: in vivo; settings: visual rating about 3 weeks after treatment vs untreated controls
Experimental: as §5

[14] = tested on: ABUTH: Abutilon theophrasti; experiment: Pre-emergence herbicide efficacy at 80 g/ha, ABUTH; format: in vivo; settings: scored visually after about 3 weeks
Procedure, shortened: as §1

VERPE: Veronica persica [15] = experiment: Post-emergence herbicidal efficacy at 1280 g/ha, VERPE; format: in vivo; settings: visual rating about 3 weeks after treatment vs untreated controls
Procedure, shortened: as §6

VERPE: Veronica persica [16] = experiment: Post-emergence herbicidal efficacy at 80 g/ha, VERPE; format: in vivo; settings: visual rating about 3 weeks after treatment vs untreated controls
Procedure, shortened: as §3

[17] = tested on: ALOMY: Alopecurus myosuroides; experiment: Pre-emergence herbicide efficacy at 1280 g/ha, ALOMY; format: in vivo; settings: visual scoring after about 3 weeks vs untreated controls
Procedure, shortened: as §2

[18] = tested on: ECHCG: Echinochloa crus-galli; experiment: Pre-emergence herbicide efficacy at 1280 g/ha, ECHCG; format: in vivo; settings: visual scoring after about 3 weeks vs untreated controls
Procedure, shortened: as §2

[19] = tested on: AMARE: Amaranthus retroflexus; experiment: Pre-emergence herbicide efficacy at 1280 g/ha, AMARE; format: in vivo; settings: visual scoring after about 3 weeks vs untreated controls
Procedure, shortened: as §2

[20] = tested on: DIGSA: Digitaria sanguinalis; experiment: Pre-emergence herbicide efficacy at 1280 g/ha, DIGSA; format: in vivo; settings: visual scoring after about 3 weeks vs untreated controls
Procedure, shortened: as §2

[21] = tested on: ECHCG: Echinochloa crus-galli; experiment: Post-emergence herbicidal efficacy at 1280 g/ha, ECHCG; format: in vivo; settings: rated visually after about 3 weeks vs untreated controls, 100% = plants have died, 0% = like control plants
Procedure, shortened: as §6

| Structure (SMILES) | Pre-emergence efficacy against SETVI in % (SETVI: Setaria viridis [1]) [%] | Pre-emergence efficacy against STEME in % (STEME: Stellaria media [2]) [%] | Pre-emergence efficacy against SETVI in % (SETVI: Setaria viridis [3]) [%] | Post-emergence efficacy against AMARE [4] [%] | Pre-emergence efficacy against ECHCG in % [5] [%] | Pre-emergence efficacy against KCHSC in % (KCHSC: Kochia scoparia [6]) [%] | Post-emergence efficacy at 1280 g/ha against ABUTH in % [7] [%] | Pre-emergence efficacy against ABUTH [8] [%] | Pre-emergence efficacy against POAAN (POAAN: Poa annua) [%] | Post-emergence efficacy against SETVI (SETVI: Setaria viridis [9]) [%] | Post-emergence efficacy at 1280 g/ha against DIGSA in % [10] [%] | Post-emergence efficacy against STEME (STEME: Stellaria media [11]) [%] | Post-emergence efficacy against KCHSC (KCHSC: Kochia scoparia [12]) [%] | Pre-emergence efficacy against AMARE in % [13] [%] | Post-emergence efficacy against VIOTR (VIOTR: Viola tricolor) [%] | Pre-emergence efficacy against ABUTH in % [14] [%] | Post-emergence efficacy against VERPE (VERPE: Veronica persica [15]) [%] | Post-emergence efficacy against VERPE (VERPE: Veronica persica [16]) [%] | Pre-emergence efficacy against ALOMY [17] [%] | Pre-emergence efficacy against ECHCG [18] [%] | also measured |
| --- | --- | --- | --- | --- | --- | --- | --- | --- | --- | --- | --- | --- | --- | --- | --- | --- | --- | --- | --- | --- | --- |
| Fc1cnc(Oc2cccc(Br)c2Cc2ncc(Cl)cn2)nc1 [Example 1-54] | 100 | 100 | 100 | 100 | 100 | 100 | 100 | 100 | 100 | 100 | 90 | 100 | 100 | 100 | 100 | 100 | 100 | 100 | 90 | 100 | Post-emergence efficacy against POLCO (POLCO): 80%; Pre-emergence efficacy against AMARE [19]: 100%; Pre-emergence efficacy against DIGSA [20]: 100%; Post-emergence efficacy at 1280 g/ha against ECHCG in % [21]: 100% |
| Clc1cnc(Cc2c(Cl)cccc2Oc2ncc(Cl)cn2)nc1 [Example 1-56] | 100 | 100 | 100 | 100 | 80 | 90 | 90 | 100 | 100 | 90 | 90 | 90 | 90 | 100 | 100 | 100 | 90 | 100 | 100 | 100 | Post-emergence efficacy against POLCO (POLCO): 80%; Pre-emergence efficacy against AMARE [19]: 100%; Pre-emergence efficacy against DIGSA [20]: 100%; Post-emergence efficacy at 1280 g/ha against ECHCG in % [21]: 90% |
| N#Cc1cccc(Oc2ncc(F)cn2)c1Cc1ncc(Cl)cn1 [Example 1-59] | 100 | 100 | 100 | 100 | 100 | 100 | 100 | 100 | 100 | 90 | 100 | 100 | 100 | 100 | 100 | 100 | 100 | 90 | 100 | 100 | Pre-emergence efficacy against AMARE [19]: 100%; Pre-emergence efficacy against DIGSA [20]: 100%; Post-emergence efficacy at 1280 g/ha against ECHCG in % [21]: 90% |
| FC(F)c1cc(-c2ccccc2Cc2ncc(Cl)cn2)on1 [Example 1-133] | 100 | 100 | 100 | 100 | 80 | 100 | 100 | 100 | 100 | 100 | 100 | 100 | 100 | 100 | 100 | 100 | 100 | 100 | 100 | 100 | Post-emergence efficacy against POLCO (POLCO): 100%; Pre-emergence efficacy against AMARE [19]: 100%; Pre-emergence efficacy against DIGSA [20]: 100%; Post-emergence efficacy at 1280 g/ha against ECHCG in % [21]: 100% |
